In patent EP0804408B1, “NOVEL 4-SUBSTITUTED 2,6-DI-TERT-BUTYLPHENOL COMPOUNDS, PHARMACEUTICAL COMPOSITIONS CONTAINING SAME AND PREPARATION METHOD THEREFOR” (priority 1994, dated 1996):

Tested on: NO-synthase inductible (iNOS)
Experiment: iNOS induction test: nitrites in RAW264.7 supernatants by Griess reaction after nitrate reduction
Assay type: cell-based, murins
Settings: IFNγ + LPS
Text: Cette hypothèse a été contrôlée en dosant les nitrites dans des surnageants de culture de macrophages murins de lignées activées en présence de AVF1. Les nitrites ont été dosés par la réaction de Griess après réduction de tous le nitrates grâce à la nitrate réductase de Pseudomonas oleoverans (Granger et al., J. Immunol., 1991, 146, 1294-1302). La spécificité de la réaction a été prouvée par l'emploi d'un inhibiteur spécifique de la synthèse du monoxyde d'azote, la N^G-monométhyl-L-arginine (L-NMMA).
Le test d'induction iNOS consiste à ensemencer les macrophages RAW264.7 dans des plaques à 24 puits à raison de 1 x 10^6 sous 1,6 ml. Après 24 heures de culture permettant d'obtenir un tapis cellulaire complet, AVF1, dilué de raison 10 dans des des doses ne donnant pas de toxicité cellulaire (de 10^-6 à 10^-8 %), est ajouté dans 100 µl par cupule soit sur des macrophages sans activateur, avec ou sans l'inhibiteur de iNOS (action directe du produit sur les macrophages) soit en présence des inducteurs, avec ou sans inhibiteur (action du produit sur des macrophages activés).
Après 24 heures de culture, les surnageants sont prélevés, centrifugés 10 minutes à 100 g à température ambiantes pour éliminer les éventuels débris cellulaires puis utilisés pour le dosage des nitrites.
Deux volumes des surnageants clarifiés sont réduits en présence d'un volume d'une suspension de Pseudomonas oleovorans à 100 mg/ml et un volume de D-MEM sans rouge de phénol. Après une incubation de 90 minutes à 37°C sans agitation, les mélanges sont centrifugés 5 minutes à 4 000 g pour éliminer les bactéries et dilués au 1/5 et au 1/10 en eau distillée stérile.
100 µl des échantillons réduits et dilués sont distribués dans des séries de 2 puits dans une plaque ELISA (maxicorp, Nunc.). 200 µl du réactif de Griess (mélange ex-temporané volume à volume des solutions de sulfamide à 1,5 g/100 ml de HCl 1,2 N (87,1 mM) - réactif A - et de naphtylènediamine à 0,15 g/100 ml d'eau stérile (5,78 mM) - réactif B -) sont ajoutés.
Cent autres µl d'échantillon servant de blanc de DO sont distribués et mélangés à 200 µl d'un mélange ex-temporané volume à volume d'eau distillée et du réactif colorimétrique A.
Après 30 minutes à température ambiante à l'obscurité, la densité optique (DO) des échantillons est lue à 540 nm au lecteur de plaque pour ELISA.
• Les contrôles du système d'induction iNOS sont composés de : • . Témoin cellules consistant en des macrophages ne recevant que du milieu de culture. • . Témoin d'induction consistant en des macrophages traités par 100 µl de lipopolysaccharide (LPS à 4 µg/ml, Difco) et par 100 µl d'interféron-γ recombinant (IFN-γ à 1 µU/ml, Boerhinger-Mannheim) afin d'activer la iNOS (Schmidt et al., Mol. Pharmacol., 1992, 41, 614-624). Les solutions mères de LPS et de IFN-γont été conservées respectivement à +4°C et à -20°C avant utilisation. • . Témoin d'inhibition spécifique pour prouver que les nitrites dosés proviennent de l'activation de la iNOS. Il consiste à incorporer à la culture un inhibiteur spécifique, la L-NMMA (N^G-monométhyl-L-arginine, Calbiochem) (Hibbs et al., Science, 1987, 235, 473-476) à des concentrations de raison 10 allant de 3 à 300 µM. Cette solution a été conservée sous parties aliquotes à -20°C avant utilisation. • Les contrôles de la réaction de Greiss sont composés de : • . Une solution de nitrate de sodium qui permet de contrôler l'activité nitrate-réductase des bactéries. • . Une gamme étalon de nitrite de sodium qui permet de doser les nitrites dans les échantillons. • Le blanc de DO de la gamme étalon contenant 100 µl d'eau distillée et 200 µl du mélange des réactifs A et B.

[1] = L-NMMA (300 µM) alone (no AVF1)

Q: For `CNC(=N)NCCC[C@H](N)C(=O)O` [L-NMMA, N^G-monométhyl-L-arginine, reference compound], which “Concentration moyenne en nitrites en µM sur 2 échantillons” value (L-NMMA (3 µM) alone (no AVF1)) is on record?
A: 20,9 µM

Q: What about the “Pourcentage d'inhibition de la production de nitrite” value (L-NMMA (3 µM) alone (no AVF1)) of the same compound?
A: 0%

Q: What about the “Concentration moyenne en nitrites en µM sur 2 échantillons” value (L-NMMA (30 µM) alone (no AVF1)) of the same compound?
A: 14,7 µM

Q: What about the “Pourcentage d'inhibition de la production de nitrite” value (L-NMMA (30 µM) alone (no AVF1)) of the same compound?
A: 29%

Q: What about the “Concentration moyenne en nitrites en µM sur 2 échantillons” value [1] of the same compound?
A: 9,3 µM

Q: And the “Pourcentage d'inhibition de la production de nitrite” value [1]?
A: 55%
